What follows are compounds tested against Acetylcholinesterase (Homo sapiens, UniProt P22303).
Acetylcholinesterase, sequence (P22303 whole entry): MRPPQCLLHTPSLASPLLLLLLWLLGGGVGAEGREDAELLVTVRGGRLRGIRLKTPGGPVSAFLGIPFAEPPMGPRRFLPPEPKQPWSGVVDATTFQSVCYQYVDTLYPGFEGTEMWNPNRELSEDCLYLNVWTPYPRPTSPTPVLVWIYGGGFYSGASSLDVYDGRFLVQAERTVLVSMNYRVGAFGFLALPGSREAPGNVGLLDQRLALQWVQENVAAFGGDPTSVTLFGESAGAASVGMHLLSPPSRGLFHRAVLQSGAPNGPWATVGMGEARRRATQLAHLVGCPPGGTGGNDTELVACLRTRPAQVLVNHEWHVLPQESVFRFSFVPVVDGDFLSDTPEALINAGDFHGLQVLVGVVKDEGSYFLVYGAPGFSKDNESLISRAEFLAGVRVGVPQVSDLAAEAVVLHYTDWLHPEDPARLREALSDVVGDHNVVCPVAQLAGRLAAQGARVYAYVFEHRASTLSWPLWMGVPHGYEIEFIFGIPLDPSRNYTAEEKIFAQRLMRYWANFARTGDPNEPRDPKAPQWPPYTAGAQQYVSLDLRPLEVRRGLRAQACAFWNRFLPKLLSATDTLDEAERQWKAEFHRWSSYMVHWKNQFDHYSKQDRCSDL
Description: Inhibition of human acetylcholinesterase
Compound `O=C(CCC1CCN(Cc2ccccc2)CC1)c1ccc2c(c1)CCCN2` has an IC50 of 0.0646 µM.
Compound `O=C(CCC1CCN(Cc2ccccc2)CC1)c1ccc2c(c1)NC(c1ccccc1)N2` (stereo not drawn) has an IC50 of 0.0331 µM.
`O=C(CCC1CCN(Cc2ccccc2)CC1)c1ccc2c(c1)CNCCC2` gave an IC50 of 0.0229 µM.
Compound `O=C(CCC1CCN(Cc2ccccc2)CC1)c1ccc2c(c1)CCNCC2` has an IC50 of 0.0251 µM.
`O=C(CCC1CCN(Cc2ccccc2)CC1)c1ccc2c(c1)CNCCO2` gave an IC50 of 0.0398 µM.
`O=C(CCC1CCN(Cc2ccccc2)CC1)c1cc2c3c(c1)CC(=O)N3CCC2` showed an IC50 of 0.00363 µM.
`O=C(CCC1CCN(Cc2ccccc2)CC1)c1cc2c3c(c1)CCN3C(=O)CC2` gave an IC50 of 0.00977 µM.
Work on `O=C(CCC1CCN(Cc2ccccc2F)CC1)c1cc2c3c(ccn3C(=O)CC2)c1` yielded an IC50 of 0.00251 µM.
`O=C(CCC1CCN(Cc2cccc(F)c2)CC1)c1cc2c3c(ccn3C(=O)CC2)c1` showed an IC50 of 0.00129 µM.
`O=C(CCC1CCN(Cc2ccccc2Cl)CC1)c1cc2c3c(ccn3C(=O)CC2)c1` was tested, and the IC50 was 0.00513 µM.
For `O=C(CCC1CCN(Cc2cccc(Cl)c2)CC1)c1cc2c3c(ccn3C(=O)CC2)c1`, the IC50 was 0.0049 µM.
In the case of `O=C(CCC1CCN(Cc2ccc(Cl)cc2)CC1)c1cc2c3c(ccn3C(=O)CC2)c1`, the IC50 is reported as 0.151 µM.
`COc1ccccc1CN1CCC(CCC(=O)c2cc3c4c(ccn4C(=O)CC3)c2)CC1` showed an IC50 of 0.0646 µM.
In the case of `COc1cccc(CN2CCC(CCC(=O)c3cc4c5c(ccn5C(=O)CC4)c3)CC2)c1`, the IC50 is reported as 0.126 µM.
`COc1ccc(CN2CCC(CCC(=O)c3cc4c5c(ccn5C(=O)CC4)c3)CC2)cc1` was tested, and the IC50 was 0.347 µM.
Compound `O=C(CCC1CCN(Cc2ccccc2O)CC1)c1cc2c3c(ccn3C(=O)CC2)c1` has an IC50 of 0.0011 µM.
With `O=C(CCC1CCN(Cc2cccc(O)c2)CC1)c1cc2c3c(ccn3C(=O)CC2)c1` the IC50 was 0.00871 µM.
`O=C(CCC1CCN(Cc2ccccc2[N+](=O)[O-])CC1)c1cc2c3c(ccn3C(=O)CC2)c1` was tested, and the IC50 was 0.0891 µM.
`O=C(CCC1CCN(Cc2cccc([N+](=O)[O-])c2)CC1)c1cc2c3c(ccn3C(=O)CC2)c1` showed an IC50 of 0.00288 µM.
Compound `O=C(CCC1CCN(Cc2ccccc2)CC1)c1cc2c3c(c1)CCC(=O)N3CCC2` has an IC50 of 0.0158 µM.
`O=C(CCC1CCN(Cc2ccccc2)CC1)c1cc2c3c(c1)CCN3C(=O)CCC2` showed an IC50 of 0.0525 µM.
`CS(=O)(=O)Nc1ccc2c(CCC3CCN(Cc4ccccc4)CC3)noc2c1` showed an IC50 of 0.0141 µM.
`c1ccc(CN2CCC(CCc3noc4cc(C5CCCCC5)ccc34)CC2)cc1` gave an IC50 of 0.000794 µM.
For `O=C(CCC1CCN(Cc2ccc(F)cc2)CC1)c1cc2c3c(ccn3C(=O)CC2)c1`, the IC50 was 0.00457 µM.
`O=C(CCC1CCN(Cc2ccc(O)cc2)CC1)c1cc2c3c(ccn3C(=O)CC2)c1` was tested, and the IC50 was 0.00049 µM.
For `O=C(CCC1CCN(Cc2ccc([N+](=O)[O-])cc2)CC1)c1cc2c3c(ccn3C(=O)CC2)c1`, the IC50 was 0.0427 µM.
`O=C(CCC1CCN(Cc2ccccc2)CC1)c1ccc2c(c1)NCCC2` showed an IC50 of 0.166 µM.
`O=C(CCC1CCN(Cc2ccccc2)CC1)c1ccc2c(c1)CCN2` was tested, and the IC50 was 0.0525 µM.

From ChEMBL document CHEMBL1649350, “Receptor-dependent (RD) 3D-QSAR approach of a series of benzylpiperidine inhibitors of human acetylcholinesterase (HuAChE)” (Eur J Med Chem, 2011)
